Source: US20240238250A1, “METHOD OF USING PIROMELATINE FOR TREATING PARASOMNIAS ASSOCIATED WITH LOSS OF REM SLEEP ATONIA” (NEURIM PHARMACEUTICALS (1991) LTD., priority 2023, published 2024)
Entries after “also recorded” stand apart in the source; their conditions may differ.

Key:
[1] = test system: patients with primary insomnia; assay: NREM sleep EEG spectral power after 4-week treatment, 3-arm parallel group study versus placebo; assay type: in vivo, human; details: 4-wks treatment, 20 and 50 mg; compared to baseline and to placebo
Protocol: (§1) NREM sleep EEG power was calculated to evaluate the effects of chronic (4-week) administration of 20 mg and 50 mg piromelatine compared to those of placebo in patients with primary insomnia. Sleep EEG was recorded in 9 different centers in the frame of a 3-arm parallel group study with a random allocation of patients to one of the three treatment group (i.e., of the 121 patients who had exploitable sleep EEG data, 42 received placebo, 39 received piromelatine 20 mg, and 40 received piromelatine 50 mg).
(§2) Spectral power was calculated for all-night) and NREM sleep for the total EEG spectrum [0.5; 32] Hz and in the following frequency bands: delta [0.5; 4] Hz, theta [4; 8] Hz, alpha [8; 13] Hz, sigma [11.5; 15.5] Hz, beta [15.5; 32] Hz, beta1 [15.5; 20.5] Hz, beta2 [20.5; 25.5] Hz, and beta3 [25.5; 32] Hz.

[2] = test system: patients with primary insomnia; assay: REM sleep EEG spectral power after 4-week treatment, 3-arm parallel group study versus placebo; assay type: in vivo, human; details: for REM EEG spectral power, Alpha power ([8; 13] Hz) / REM EEG spectral power, Beta1 power ([15.5; 20.5] Hz) / REM EEG spectral power, Beta2 power ([20.5; 25.5] Hz) / REM EEG spectral power, Beta3 power ([25.5; 32] Hz) / REM EEG spectral power, Beta power ([15.5; 32] Hz) / REM EEG spectral power, Delta power ([0.5; 4] Hz) / REM EEG spectral power, Sigma power ([11.5; 15.5] Hz) / REM EEG spectral power, Theta power ([4; 8] Hz) / REM EEG spectral power, Total EEG power ([0.5; 32] Hz): 4 wks, whole night sleep
Protocol: as §1, with “REM” for “NREM”
as §2, with “REM” for “NREM”
Note, REM sleep is longest during the third part of the night.

**Q.** Which results are given for `COc1ccc2[nH]cc(CCNC(=O)c3cc(=O)cco3)c2c1` [Piromelatine, N-(2-(5-methoxy-1H-indol-3-yl)ethyl)-4-oxo-4H-pyran-2-carboxamide]?
**A.** effect on NREM low frequency band (0.5-1.5 Hz) (in words) [1]: can increase the NREM low frequency band; effect on REM sleep alpha power band (in words) ([2]; 4-wks treatment, 20 and 50 mg, compared to baseline and to placebo, in particular during the longest REM period in the third part of the night sleep): increases the spectral power in the a band during REM sleep; also recorded: enhances the REM sleep alpha power band; effect on other frequencies during REM sleep (in words) ([2]; patients with insomnia aged 20-80 years): minor or no changes in other frequencies; REM EEG spectral power, Alpha power ([8; 13] Hz) ([2]; piromelatine 20 mg, n = 39): 103.36 % of baseline values; REM EEG spectral power, Beta1 power ([15.5; 20.5] Hz) ([2]; piromelatine 20 mg, n = 39): 100.36 % of baseline values; REM EEG spectral power, Beta2 power ([20.5; 25.5] Hz) ([2]; piromelatine 20 mg, n = 39): 98.51 % of baseline values; REM EEG spectral power, Beta3 power ([25.5; 32] Hz) ([2]; piromelatine 20 mg, n = 39): 97.56 % of baseline values; REM EEG spectral power, Beta power ([15.5; 32] Hz) ([2]; piromelatine 20 mg, n = 39): 98.95 % of baseline values; REM EEG spectral power, Delta power ([0.5; 4] Hz) ([2]; piromelatine 20 mg, n = 39): 100.29 % of baseline values; REM EEG spectral power, Sigma power ([11.5; 15.5] Hz) ([2]; piromelatine 20 mg, n = 39): 100.34 % of baseline values; REM EEG spectral power, Theta power ([4; 8] Hz) ([2]; piromelatine 20 mg, n = 39): 101.45 % of baseline values; REM EEG spectral power, Total EEG power ([0.5; 32] Hz) ([2]; piromelatine 20 mg, n = 39): 99.76 % of baseline values; REM EEG spectral power, Beta1 power ([15.5; 20.5] Hz) ([2]; piromelatine 50 mg, n = 40): 98.19 % of baseline values; REM EEG spectral power, Beta2 power ([20.5; 25.5] Hz) ([2]; piromelatine 50 mg, n = 40): 99.93 % of baseline values; REM EEG spectral power, Beta3 power ([25.5; 32] Hz) ([2]; piromelatine 50 mg, n = 40): 97.73 % of baseline values; REM EEG spectral power, Beta power ([15.5; 32] Hz) ([2]; piromelatine 50 mg, n = 40): 99.55 % of baseline values; REM EEG spectral power, Delta power ([0.5; 4] Hz) ([2]; piromelatine 50 mg, n = 40): 103.73 % of baseline values; REM EEG spectral power, Sigma power ([11.5; 15.5] Hz) ([2]; piromelatine 50 mg, n = 40): 103.14 % of baseline values; REM EEG spectral power, Theta power ([4; 8] Hz) ([2]; piromelatine 50 mg, n = 40): 105.03 % of baseline values; REM EEG spectral power, Total EEG power ([0.5; 32] Hz) ([2]; piromelatine 50 mg, n = 40): 105.33 % of baseline values; REM EEG spectral power, Alpha power ([8; 13] Hz) ([2]; piromelatine 50 mg, n = 40, * significant difference (P < 0.05) compared to placebo): 106.55* % of baseline values
